Article PMC13184988, “Enzymatic Bromination of Native Peptides for Late-Stage Structural Diversification via Suzuki–Miyaura Coupling” (ACS Chemical Biology, 2026)
Values joined by “and” are separate entries in the source; they are usually repeats but may differ in a detail not shown here. Identical values can stand only once. *1 amine or outer side, *2 acyl side, *3 side chain or, on linkers, in order; H or OH if unused. Where a SMILES comes first, the peptide text is derived from it. [ ]: non-standard residue; d: D form. X1 = O=C([C@H](Cc1c[nH]c2c(-c3cccc(C(F)(F)F)c3)cccc12)N[*:1])[*:2]; Trp(7-Br) = N[C@@H](Cc1c[nH]c2c(Br)cccc12)C(=O)O

Tests used:
E. coli XL10 [1] = test: Bacterial minimal inhibitory concentration, 18 h growth inhibition assay; assay type: cell-based
E. coli XL10 [2] = test: Minimal bactericidal concentration (Petri dish and spot assay); assay type: cell-based
Procedure: 0.5%. After incubation, the cells were washed 2 × 0.5 mg/mL heparin sulfate in PBS and then washed with 2 × FluoroBrite DMEM. FluoroBrite DMEM (200 µL) was added to each well for imaging. 1 drop of NucRed nuclear counterstain was added to visualize the cell nuclei. The cells were imaged using a Nikon microscope equipped with an Orca-Fire camera. Fiji was used for […]
. Fluorescence images were background corrected and individual nuclei were segmented based on a threshold intensity in the NucRed […]
Mueller-Hinton II cation-adjusted broth (10 mL) was inoculated with E. coli XL10 and incubated overnight with shaking at 37°C. The next day, the overnight culture was diluted to an OD600 of 0.5 […]
OD600 0.5 culture was further diluted 20-fold into fresh Mueller-Hinton II cation-adjusted broth […]
From each triplicate experiment, 100 µL of the 18-hour minimal inhibitory growth culture (see above) was plated on a petri dish containing Mueller-Hinton II cation-adjusted agar. […] The next morning, the bacterial growth on each triplicate plate was assessed. […]
Using a multichannel pipette, 3 μL from each triplicate of the 18-hour minimal inhibitory growth culture (see above) was spotted on a square petri dish containing Mueller-Hinton II cation-adjusted agar. […] The next morning, the bacterial growth on each triplicate plate was assessed. […]

4V = assay type: biochemical

Row | Molecule | fold decrease in MIC relative to the parent peptide (RW)3 (E. coli XL10 [1]) | fold decrease in MBC relative to the parent peptide (RW)3 (E. coli XL10 [2]) | Average Percent Conversion (4V) [%] | Percent Br2 Conversion (EIC) (4V) [%] | Percent Br Conversion (EIC) (4V) | Total Percent Conversion (4V) | 4V-catalyzed conversion to the monobrominated product (4V; unmodified bioactive peptides, 1 mM peptide, 10 mM NaBr, 25 μM 4V, 25 mM HEPES pH 7.4, 24 h ambient, n = 3 independent experiments) [%]
1 | N=C(N)NCCC[C@H](NC(=O)[C@H](Cc1c[nH]c2ccccc12)NC(=O)[C@H](CCCNC(=N)N)NC(=O)[C@H](Cc1c[nH]c2ccccc12)NC(=O)[C@@H](N)CCCNC(=N)N)C(=O)N[C@@H](Cc1c[nH]c2c(Br)cccc12)C(N)=O [Br-(RW)3] (H-RWRWR[Trp(7-Br)]-NH2; N-terminus assumed) | approximately 4 fold | approximately 4 fold |  |  |  |  | 
2 | N=C(N)NCCC[C@H](NC(=O)[C@H](Cc1c[nH]c2ccccc12)NC(=O)[C@H](CCCNC(=N)N)NC(=O)[C@H](Cc1c[nH]c2ccccc12)NC(=O)[C@@H](N)CCCNC(=N)N)C(=O)N[C@@H](Cc1c[nH]c2c(-c3cccc(C(F)(F)F)c3)cccc12)C(N)=O [CF3(−RW)3] (H-RWRWR[X1]-NH2; N-terminus assumed) |  | 4 fold |  |  |  |  | 
3 | galanin |  |  | 21.379 | 0 | 21.5543% and 21.2037% | 21.2037% and 21.5543% | 16.8 ± 0.2
